molecular target: Histone deacetylase 2 (Homo sapiens, UniProt Q92769); experiment: Inhibition of full-length recombinant human C-terminal GST tagged HDAC2 expressed in Sf9 insect cells using aminoluciferin peptide substrate at 100 nM preincubated for 3 hrs followed by substrate addition and measured after 30 mins by HDAC-Glo I/II chemiluminescence assay; settings: time 3.5 hrs
Sequence (Q92769 whole entry): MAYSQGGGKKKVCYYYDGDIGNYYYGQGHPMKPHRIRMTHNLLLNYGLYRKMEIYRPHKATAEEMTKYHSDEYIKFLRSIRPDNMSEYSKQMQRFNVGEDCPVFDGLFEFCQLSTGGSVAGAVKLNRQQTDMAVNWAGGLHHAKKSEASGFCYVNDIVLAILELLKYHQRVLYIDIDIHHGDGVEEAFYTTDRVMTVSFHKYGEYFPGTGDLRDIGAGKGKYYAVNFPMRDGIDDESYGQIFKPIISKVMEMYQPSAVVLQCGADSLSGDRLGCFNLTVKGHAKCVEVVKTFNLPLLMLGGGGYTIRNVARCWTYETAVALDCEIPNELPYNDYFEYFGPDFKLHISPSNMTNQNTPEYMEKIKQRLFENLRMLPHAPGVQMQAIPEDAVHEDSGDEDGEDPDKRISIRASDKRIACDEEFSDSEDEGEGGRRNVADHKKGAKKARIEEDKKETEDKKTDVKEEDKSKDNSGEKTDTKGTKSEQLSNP

Row | SMILES | inhibition [%]
1 | Nc1ccc(-c2ccsc2)cc1NC(=O)c1cn(CCc2ccccn2)nn1 | 1
2 | Nc1ccc(-c2cccs2)cc1NC(=O)c1cccc(-c2cn(CCc3ccc(Cl)cc3)nn2)c1 | 0
3 | Cc1cccc(C)c1NC(=O)Cn1cc(CCC(=O)Nc2cc(-c3cccnc3)ccc2N)nn1 | 11
4 | Nc1ccc(-c2ccsc2)cc1NC(=O)c1cn(Cc2ccc3ccccc3c2)nn1 | 3
5 | Nc1ccc(-c2cccs2)cc1NC(=O)c1ccc(-c2cn(CCc3ccccc3[N+](=O)[O-])nn2)cc1 | 33
6 | Nc1ccc(-c2ccc(F)cc2)cc1NC(=O)c1cn(CCc2ccccc2[N+](=O)[O-])nn1 | 12
7 | Nc1ccc(-c2ccc(F)cc2)cc1NC(=O)CCc1cn(CCc2cccc([N+](=O)[O-])c2)nn1 | 41
8 | Nc1ccc(-c2ccc(F)cc2)cc1NC(=O)CCc1cn(-c2cccc3ccccc23)nn1 | 0
9 | COc1ccc(CCn2cc(CCC(=O)Nc3cc(-c4cccnc4)ccc3N)nn2)cc1 | 21
10 | Nc1ccc(-c2cccs2)cc1NC(=O)c1cn(CCCCC(=O)O)nn1 | 3
11 | Cc1ccccc1CCn1cc(C(=O)Nc2cc(-c3ccc(F)cc3)ccc2N)nn1 | 0
12 | Nc1ccc(-c2ccccc2)cc1NC(=O)c1cn(Cc2ccc3ccccc3c2)nn1 | 1
13 | Nc1ccc(-c2ccc(F)cc2)cc1NC(=O)CCc1cn(CCCc2ccccc2)nn1 | 12
14 | Nc1ccc(-c2cccs2)cc1NC(=O)CCc1cn(CCc2c[nH]c3ccccc23)nn1 | 18
15 | Nc1ccc(-c2ccc(F)cc2)cc1NC(=O)CCc1cn(CC2CCCCC2)nn1 | 1
16 | Nc1ccc(-c2ccsc2)cc1NC(=O)c1cn(Cc2ccc(C(=O)O)cc2)nn1 | 49
17 | Cc1csc(CCn2cc(CCC(=O)Nc3cc(-c4ccsc4)ccc3N)nn2)n1 | 39
18 | Nc1ccc(-c2cccs2)cc1NC(=O)c1ccc(-c2cn(C[S+]([O-])c3ccccc3)nn2)s1 (configuration not stated) | 60
19 | Nc1ccc(-c2ccc(F)cc2)cc1NC(=O)CCc1cn(CC(=O)Nc2ccc(F)cc2)nn1 | 16
20 | Nc1ccc(-c2cccs2)cc1NC(=O)c1ccc(-c2cn(-c3ccc(I)cc3)nn2)cc1 | 0
21 | Nc1ccc(-c2cccs2)cc1NC(=O)CCc1cn(-c2ccc([N+](=O)[O-])cc2)nn1 | 15
22 | Cc1cccc(CCn2cc(CCC(=O)Nc3cc(-c4cccs4)ccc3N)nn2)c1 | 24
23 | Nc1ccc(-c2cccs2)cc1NC(=O)c1ccc(-c2cn(-c3ccc(Br)cc3)nn2)cc1 | 0

Row | SMILES | inhibition [%]
24 | Nc1ccc(-c2ccccc2)cc1NC(=O)CCc1cn(CCc2c[nH]c3ccccc23)nn1 | 20
25 | Nc1ccc(-c2cccs2)cc1NC(=O)c1cn(CCCc2ccccc2)nn1 | 9
26 | Nc1ccc(-c2cccs2)cc1NC(=O)CCc1cn(CCc2ccc(C(F)(F)F)cc2)nn1 | 5
27 | Cc1ccc(-n2cc(-c3ccc(C(=O)Nc4cc(-c5cccs5)ccc4N)s3)nn2)cc1C | 0
28 | Nc1ccc(-c2cccnc2)cc1NC(=O)CCc1cn(CCc2ccc([N+](=O)[O-])cc2)nn1 | 3
29 | Nc1ccc(-c2cccs2)cc1NC(=O)c1cccc(-c2cn(Cc3cc4ccccc4s3)nn2)c1 | 0
30 | Nc1ccc(-c2ccccc2)cc1NC(=O)CCc1cn(CCC23CC4CC(CC(C4)C2)C3)nn1 | 0
31 | Nc1ccc(-c2cccs2)cc1NC(=O)c1cccc(-c2cn(CC3CCCCC3)nn2)c1 | 0
32 | Nc1ccc(-c2cccs2)cc1NC(=O)CCc1cn(CCC23CC4CC(CC(C4)C2)C3)nn1 | 5
33 | Nc1ccc(-c2ccsc2)cc1NC(=O)CCc1cn(CCc2ccc([N+](=O)[O-])cc2)nn1 | 20
34 | Nc1ccc(-c2ccc(F)cc2)cc1NC(=O)CCc1cn(CCCCC(=O)O)nn1 | 0
35 | Nc1ccc(-c2ccc(F)cc2)cc1NC(=O)c1cn(Cc2ccc(C(=O)O)cc2)nn1 | 65
36 | Nc1ccc(-c2cccnc2)cc1NC(=O)CCc1cn(Cc2ccc3ccccc3c2)nn1 | 19
37 | Nc1ccc(-c2ccc(F)cc2)cc1NC(=O)c1cn(CCc2ccc(Cl)cc2)nn1 | 0
38 | Nc1ccc(-c2cccs2)cc1NC(=O)c1ccc(-c2cn(Cc3ccc(Oc4ccccc4)cc3)nn2)cc1 | 0
39 | Nc1ccc(-c2ccc(F)cc2)cc1NC(=O)c1cn(Cc2nc3ccccc3[nH]2)nn1 | 37
40 | Nc1ccc(-c2ccsc2)cc1NC(=O)CCc1cn(/C=C/c2ccccc2)nn1 | 2
41 | Nc1ccc(-c2cccs2)cc1NC(=O)c1ccc(-c2cn(CCC3CCCC3)nn2)cc1 | 0
42 | Nc1ccc(-c2cccs2)cc1NC(=O)c1ccc(-c2cn(CCc3cccc(C(F)(F)F)c3)nn2)cc1 | 3
43 | COc1ccccc1CCn1cc(CCC(=O)Nc2cc(-c3ccc(F)cc3)ccc2N)nn1 | 10
44 | Nc1ccc(-c2ccc(F)cc2)cc1NC(=O)c1cn(C[S+]([O-])c2ccccc2)nn1 (configuration not stated) | 0
45 | COc1ccc(Cn2cc(CCC(=O)Nc3cc(-c4ccccc4)ccc3N)nn2)cc1 | 6
46 | Nc1ccc(-c2cccs2)cc1NC(=O)c1cn(Cc2cc3ccccc3s2)nn1 | 8

Row | SMILES | inhibition [%]
47 | Nc1ccc(-c2cccs2)cc1NC(=O)c1cn(-c2ccc(Br)cc2)nn1 | 0
48 | Nc1ccc(-c2cccs2)cc1NC(=O)c1ccc(-c2cn(Cc3ccc(OC(F)(F)F)cc3)nn2)cc1 | 5
49 | Nc1ccc(-c2ccccc2)cc1NC(=O)c1cn(CCc2ccccc2)nn1 | 12
50 | Nc1ccc(-c2cccs2)cc1NC(=O)c1ccc(-c2cn(-c3ccc([N+](=O)[O-])cc3)nn2)cc1 | 4
51 | Nc1ccc(-c2ccsc2)cc1NC(=O)CCc1cn(CS(=O)(=O)c2ccccc2)nn1 | 14
52 | Nc1ccc(-c2ccccc2)cc1NC(=O)CCc1cn(CCc2cccc(Cl)c2)nn1 | 1
53 | Nc1ccc(-c2cccs2)cc1NC(=O)c1cccc(-c2cn(CCc3ccccc3C(F)(F)F)nn2)c1 | 2
54 | Nc1ccc(-c2ccsc2)cc1NC(=O)CCc1cn(CCCc2ccccc2)nn1 | 19
55 | Nc1ccc(-c2cccs2)cc1NC(=O)CCc1cn(CCc2ccc(C(=O)O)cc2)nn1 | 35
56 | Nc1ccc(-c2cccs2)cc1NC(=O)c1ccc(-c2cn(-c3cccc4ccccc34)nn2)s1 | 0
57 | Nc1ccc(-c2ccccc2)cc1NC(=O)CCc1cn(CCN2CCOCC2)nn1 | 0
58 | Nc1ccc(-n2cc(C(=O)Nc3cc(-c4ccccc4)ccc3N)nn2)cc1 | 11
59 | Nc1ccc(-c2cccs2)cc1NC(=O)c1ccc(-c2cn(-c3ccc(Br)cc3)nn2)s1 | 0
60 | Nc1ccc(-c2cccs2)cc1NC(=O)CCc1cn(-c2ccccc2-c2ccccc2)nn1 | 0
61 | Nc1ccc(-c2cccs2)cc1NC(=O)c1ccc(-c2cn(/C=C/c3ccccc3)nn2)s1 | 5
62 | Nc1ccc(-c2ccc(F)cc2)cc1NC(=O)c1cn(CC(=O)Nc2ccc(F)cc2)nn1 | 32
63 | Nc1ccc(-c2ccccc2)cc1NC(=O)c1cn(CCc2ccc(C(F)(F)F)cc2)nn1 | 0
64 | Nc1ccc(-c2cccs2)cc1NC(=O)CCc1cn(Cc2cccc(C(=O)O)c2)nn1 | 3
65 | COc1ccc(Cn2cc(CCC(=O)Nc3cc(-c4ccsc4)ccc3N)nn2)cc1 | 24
66 | Nc1ccc(-c2cccs2)cc1NC(=O)c1cccc(-c2cn(Cc3cccc(C(=O)O)c3)nn2)c1 | 17
67 | Nc1ccc(-c2ccc(F)cc2)cc1NC(=O)c1cn(CCc2c[nH]c3ccccc23)nn1 | 5

Source: ChEMBL document CHEMBL5390237, “Discovery of Selective Histone Deacetylase 1 and 2 Inhibitors: Screening of a Focused Library Constructed by Click Chemistry, Kinetic Binding Analysis, and Biological Evaluation” (J Med Chem, 2023)
